The record followed here is US8957062B2, “Substituted cyclopropyl compounds, compositions containing such compounds and methods of treatment” (Merck Sharp & Dohme Corp., priority 2011, dated 2015).

Series [1] addresses T1, human GPR119 (Homo sapiens, UniProt Q8TDV5).
T1 sequence (Q8TDV5 1-308 limits assumed): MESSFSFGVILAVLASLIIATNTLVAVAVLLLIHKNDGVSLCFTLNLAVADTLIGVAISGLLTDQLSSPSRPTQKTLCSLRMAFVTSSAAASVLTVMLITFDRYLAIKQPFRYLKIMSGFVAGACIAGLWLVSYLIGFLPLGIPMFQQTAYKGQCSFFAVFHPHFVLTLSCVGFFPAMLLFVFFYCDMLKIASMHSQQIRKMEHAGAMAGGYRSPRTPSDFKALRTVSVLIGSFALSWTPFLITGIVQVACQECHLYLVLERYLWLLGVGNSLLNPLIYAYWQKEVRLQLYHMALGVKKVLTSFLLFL
The experiment in a line: Measurement of GPR119 signaling (cAMP assay) in cells stably transfected with human GPR119. It counts as cell-based. As to conditions: cAMP stimulation, human GPR119, read-out: GPR119 Human EC50. (In general: Changes in cAMP serve as a functional read-out for many G protein-coupled receptors.)

Read-outs that look alike come from different tables or passages of the source.

For orientation: melting point means the temperature, or range, at which the solid turns liquid. In general, EC50 refers to the concentration at which the effect is half-maximal.

In turn, `COCc1noc(N2CCC([C@H]3C[C@H]3CCOc3ccc(S(C)(=O)=O)cn3)CC2)n1` [Example 208, 3-(methoxymethyl)-5-(4-((1R,2S)-2-(2-(5-(methylsulfonyl)pyridin-2-yloxy)ethyl)cyclopropyl)piperidin-1-yl)-1,2,4-oxadiazole] displayed a melting point of 68 to 70 °C. For the same molecule, the 50% effective concentration (EC50) in series [1] (stated in the example text) came to 7 nM. With `COCCc1noc(N2CCC([C@H]3C[C@H]3CCOc3ncc(-n4cnnn4)cc3C)CC2)n1` [Example 228], the EC50 in series [1] (table column) was determined as 2 nM. On the same count and under the same terms, then `Cc1cc(-n2cnnn2)cnc1OCC[C@@H]1C[C@@H]1C1CCN(c2nc(C(C)O)no2)CC1` (stereo partly drawn) [Example 229], with 5 nM; and `COCc1noc(N2CCC([C@H]3C[C@H]3CCOc3ccc(-n4cnnn4)cn3)CC2)n1` [Example 230], with 1.6 nM.

Regarding `CC(C)c1noc(N2CCC([C@H]3C[C@H]3CCOc3ccc(-n4cnnn4)cn3)CC2)n1` [Example 231], the EC50 in series [1] (table column) is 0.4 nM. On the same count and under the same terms, under `COCCc1noc(N2CCC([C@H]3C[C@H]3CCOc3ccc(-n4cnnn4)cn3)CC2)n1` [Example 232] stands 10.6 nM. In the case of `CCc1nc(N2CCC([C@H]3C[C@H]3CCOc3ccc(S(C)(=O)=O)cn3)CC2)no1` [Example 233, 2-(2-{(1S,2R)-2-[1-(5-ethyl-1,2,4-oxidiazol-5-yl)piperidin-4-yl]cyclopropyl}ethoxy)-5-(methylsulfonyl)pyridine], the EC50 in series [1] (stated in the example text) was determined as 9.2 nM. On to `CC(C)c1nc(N2CCC([C@H]3C[C@H]3CCOc3ccc(S(C)(=O)=O)cn3)CC2)no1` [Example 234], for which, in series [1] (table column), the EC50 was 3.5 nM.

Regarding `CC(C)Cc1nc(N2CCC([C@H]3C[C@H]3CCOc3ccc(S(C)(=O)=O)cn3)CC2)no1` [Example 235], the EC50 in series [1] (table column) was 6.5 nM. As to `CC(C)(C)c1nc(N2CCC([C@H]3C[C@H]3CCOc3ccc(S(C)(=O)=O)cn3)CC2)no1` [Example 236], the EC50 in series [1] (table column) stood at 1.7 nM.

Consider `CS(=O)(=O)c1ccc(OCC[C@@H]2C[C@@H]2C2CCN(c3noc(CCC(F)(F)F)n3)CC2)nc1` [Example 237], for which the EC50 in series [1] (table column) is 18 nM. On to `CS(=O)(=O)c1ccc(OCC[C@@H]2C[C@@H]2C2CCN(c3noc(C4CC4)n3)CC2)nc1` [Example 238], for which the concentration for a half-maximal effect (EC50) in series [1] (table column) came to 22 nM. In the case of `CC1CC1c1nc(N2CCC([C@H]3C[C@H]3CCOc3ccc(S(C)(=O)=O)cn3)CC2)no1` (stereo partly drawn) [Example 239], in series [1] (table column), the EC50 was found to be 7 nM. `CC1(c2nc(N3CCC([C@H]4C[C@H]4CCOc4ccc(S(C)(=O)=O)cn4)CC3)no2)CC1` [Example 240]: the EC50 in series [1] (table column) turned out to be 5.2 nM. As for `CS(=O)(=O)c1ccc(OCC[C@@H]2C[C@@H]2C2CCN(c3noc(C4CCC4)n3)CC2)nc1` [Example 241], the EC50 in series [1] (table column) came out at 4 nM. Regarding `CS(=O)(=O)c1ccc(OCC[C@@H]2C[C@@H]2C2CCN(c3noc(C4CCCC4)n3)CC2)nc1` [Example 242], the EC50 in series [1] (table column) is 11.6 nM. Turning to `CS(=O)(=O)c1ccc(OCC[C@@H]2C[C@@H]2C2CCN(c3noc(CC4CC4)n3)CC2)nc1` [Example 243], the EC50 in series [1] (table column) was 9.8 nM. For `CS(=O)(=O)c1ccc(OCC[C@@H]2C[C@@H]2C2CCN(c3noc(C4(C(F)(F)F)CC4)n3)CC2)nc1` [Example 244], the EC50 in series [1] (table column) turned out to be 2.1 nM. Same read-out and setting: under `COCc1nc(N2CCC([C@H]3C[C@H]3CCOc3ccc(S(C)(=O)=O)cn3)CC2)no1` [Example 245] stands 8.1 nM; under `CCOCc1nc(N2CCC([C@H]3C[C@H]3CCOc3ccc(S(C)(=O)=O)cn3)CC2)no1` [Example 246], 7.9 nM. As to `CCCCc1nnc(N2CCC([C@H]3C[C@H]3CCOc3ccc(S(C)(=O)=O)cn3)CC2)o1` [Example 247, 2-(2-{(1S,2R)-2-[1-(5-butyl-1,3,4-oxidiazol-2-yl)piperidin-4-yl]cyclopropyl}ethoxy)-5-(methylsulfonyl)pyridine], the EC50 in series [1] (stated in the example text) amounted to 28 nM. `CS(=O)(=O)c1ccc(OCC[C@@H]2C[C@@H]2C2CCN(c3nnc(C4CCC4)o3)CC2)nc1` [Example 248]: in series [1] (table column), the EC50 amounted to 39 nM. In the case of `CS(=O)(=O)c1ccc(OCC[C@@H]2C[C@@H]2C2CCN(c3nnc(C4CCCC4)o3)CC2)nc1` [Example 249], the EC50 in series [1] (table column) is 32 nM.

In the case of `CS(=O)(=O)c1ccc(OCC[C@@H]2C[C@@H]2C2CCN(c3nnc(-c4ccccc4)o3)CC2)nc1` [Example 250], the EC50 in series [1] (table column) is 49 nM.

Take `O=C(c1c(F)cc(OCC[C@@H]2C[C@@H]2C2CCN(c3nc4ncccn4n3)CC2)cc1F)C1CC1` [Example 251]: in series [1] (stated in the example text), the EC50 worked out at 6 nM. With `O=C(c1c(F)cc(OCC[C@@H]2C[C@@H]2C2CCN(c3nc4cnccn4n3)CC2)cc1F)C1CC1` [Example 252], in series [1] (table column), the EC50 was determined as 4.1 nM. Same read-out and setting: under `O=C(c1c(F)cc(OCC[C@@H]2C[C@@H]2C2CCN(c3nnc4ncccn34)CC2)cc1F)C1CC1` [Example 253] stands 3 nM; under `Cc1nc(C#N)cc(OCC[C@@H]2C[C@@H]2C2CCN(c3nnc4ncccn34)CC2)n1` [Example 254], 25 nM.

Take `CC(C)c1nc(N2CCC([C@H]3C[C@H]3CCOc3ccc(CC(=O)N4CC(O)C4)c(F)c3)CC2)no1` [Example 255, 1-[(2-fluoro-4-{2-[(1S,2R)-2-{1-(5-isopropyl-1,2,4-oxadiazol-3-yl)piperidin-4-yl}cyclopropyl]ethoxy}phenyl)acetyl]azetidin-3-ol]: the EC50 in series [1] (stated in the example text) was determined as 1.6 nM. Consider `CC(C)c1noc(N2CCC([C@H]3C[C@H]3CCOc3ccc(Cc4nnco4)c(F)c3)CC2)n1` [Example 256, 4-((1R,2S)-2-{2-[3-fluoro-4-(1,3,4-oxadiazol-2-ylmethyl)phenoxy]ethyl}cyclopropyl)-1-(3-isopropyl-1,2,4-oxadiazol-5-yl)piperidine], for which, in series [1] (stated in the example text), the EC50 is 2.5 nM.

Consider `CC(C)c1noc(N2CCC([C@H]3C[C@H]3CCOc3ccc(Cc4nncs4)c(F)c3)CC2)n1` [Example 257], for which, in series [1] (table column), the EC50 worked out at 1.4 nM.

`Cc1cc(CC(=O)N2CC(F)C2)cnc1OCC[C@@H]1C[C@@H]1C1CCN(c2nc(C(C)C)no2)CC1` [Example 258, 5-[2-(3-fluoroazetidin-1-yl)-2-oxoethyl]-2-(2-{(1S,2R)-2-[1-(3-isopropyl-1,2,4-oxadiazol-5-yl)piperidin-4-yl]cyclopropyl}ethoxy)-3-methylpyridine]: in series [1] (stated in the example text), the EC50 was determined as 8 nM. On to `Cc1cc(CC(=O)N2CCC(C)CC2)cnc1OCC[C@@H]1C[C@@H]1C1CCN(c2nc(C(C)C)no2)CC1` [Example 259], for which the EC50 in series [1] (table column) was determined as 18 nM. Take `Cc1cc(CC(=O)N2CC(F)(F)C2)cnc1OCC[C@@H]1C[C@@H]1C1CCN(c2nc(C(C)C)no2)CC1` [Example 260]: the EC50 in series [1] (table column) came to 3.8 nM. Consider `COC1CN(C(=O)Cc2cnc(OCC[C@@H]3C[C@@H]3C3CCN(c4nc(C(C)C)no4)CC3)c(C)c2)C1` [Example 261], for which, in series [1] (table column), the EC50 turned out to be 19 nM.

With `Cc1cc(CC(=O)N2CC(C)(O)C2)cnc1OCC[C@@H]1C[C@@H]1C1CCN(c2nc(C(C)C)no2)CC1` [Example 262], the EC50 in series [1] (table column) was found to be 12 nM. As for `Cc1cc(CC(=O)N(C)C)cnc1OCC[C@@H]1C[C@@H]1C1CCN(c2nc(C(C)C)no2)CC1` [Example 263], the EC50 in series [1] (table column) is 14 nM. Turning to `Cc1cc(CC(=O)N(C)C2CCS(=O)(=O)C2)cnc1OCC[C@@H]1C[C@@H]1C1CCN(c2nc(C(C)C)no2)CC1` (stereo partly drawn) [Example 264], in series [1] (table column), the EC50 was found to be 11 nM.
